Results from patent US12714682B2, “Calixarene compounds and uses thereof” (UNIVERSITÄT WIEN, priority 2019, dated 2026).
Entries after “also recorded” stand apart in the source; their conditions may differ.

Experiments:
NQO1 = NQO1 immunoblot in HeLa cells; assay type: cell-based, human; conditions: 48 hours
Description: A specific anti-oxidative effect or activity of a compound is proven, if induces the expression of NQO1 in mammalian cells to a higher level than over vehicle treated cells, preferably by ~3 fold when the compound is used at 500 μM, as determined by a standard assay: Semi-quantitative western blot analysis. HeLa cells are treated with vehicle, 50, 100 and 500 μM of the compound for 48 h and lysed in Triton X-100 extraction buffer (50 mM HEPES [pH 7.4], 140 mM NaCl, 1% Triton X-100, 1 mM EDTA, 0.3 mM DTT and Complete Protease Inhibitor Cocktail). 25 μg of whole cell extract are separated on a 10% SDS-PAGE, after transfer to a PVDF membrane (Bio-Rad), proteins detected by use of standard immunoblotting procedures. […] For the analysis and quantification of the protein levels, Gel Analyzer from ImageJ (National Institute of Health, USA: http://imagej.nih.gov/ij) is used.
To verify experimentally the anti-oxidative effect of SCA-744, the induction of one of these three genes, NQO1, a major anti-oxidative enzyme was investigated. […] In fact, no NQO1 was detected in control cells under the applied experimental conditions, while a prominent signal was induced even at 50 μM, the lowest concentration of SCA-744 tested, that increased by increasing SCA-744 concentrations (approximately 3.5 fold higher signal at 500 μM). […]

neuroblastoma cells = assay: Protection from MPP+ induced oxidative stress, CellTiter-Glo viability; assay type: cell-based
Description: Several in-vivo and in-vitro studies find that MPP+ exerts oxidative stress on cells^22. MPP+×toxicity is based on its uptake into dopaminergic neurons. MPP+ accumulate into the mitochondria, inhibiting the complex-I leading to ATP depletion, increased reactive oxygen species (ROS) production, and apoptotic cell death^23. 12 h following MPP+ treatment and SCA-744 and CAL-X incubation, cell viability was assessed using a standard ATP method, CellTiter-Glo® Luminescent Cell Viability Assay.

HELA cells = assay: Protection from H2O2 induced stress; assay type: cell-based
Description: Using an incubation time of 24 h, it was sufficient to determine the toxicity and rescue effect of SCA-744 in HELA cells.

O=S(=O)(O)c1cc2c(O)c(c1)Cc1cc(S(=O)(=O)O)cc(c1O)Cc1cc(S(=O)(=O)O)cc(c1O)Cc1cc(S(=O)(=O)O)cc(c1O)C2 [SCA-744, 4-sulfocalix[4]arene]
NQO1 immunoblot signal increase (NQO1; HeLa, 500 μM, prominent signal already at 50 μM, none in control): approximately 3.5 fold
NQO1 protein expression (immunoblot) (NQO1; HeLa, 50, 100 and 500 μM): significantly increases the expression; also recorded: very significant up-regulation
protection from MPP+ induced apoptosis / damage (neuroblastoma cells; 0.1-1000 μM, 12 h): protects against oxidative stress from MPP+ induced damage; also recorded: protected neuroblastoma cells from MPP+ induced apoptosis
concentration for MPP+ protection (neuroblastoma cells; 12 h following MPP+ treatment, CellTiter-Glo): 1 µM
EC50 (HELA cells; Homo sapiens, HELA, 24 h incubation, H2O2 50 mM, read-out: EC50 rescue from H2O2 toxicity): 200 nM
protection from H2O2 induced damage (HELA cells; mammalian cells, FIG. 20): protects against oxidative stress from H2O2 induced damage
